Literature values as cited in patent US5152997A, “Method and device for transdermally administering testosterone across nonscrotal skin at therapeutically effective levels” (Theratech, Inc., priority 1991, dated 1992).

What was measured:
[1] = e.g., neck, back, chest, arms; for delivery of 5-10 mg/day through a limited area

| Compound | systemic availability of testosterone (oral administration) | degradation by the liver (administered orally) | permeability to testosterone of skin areas normally used for transdermal delivery [1] |
| --- | --- | --- | --- |
| CCCCCCCCCCC(=O)O[C@H]1CC[C@H]2[C@@H]3CCC4=CC(=O)CC[C@]4(C)[C@H]3CC[C@]12C [testosterone undecanoate] | provides systemically available testosterone |  |  |
| C[C@]12CC[C@H]3[C@@H](CCC4=CC(=O)CC[C@@]43C)[C@@H]1CC[C@@H]2O [testosterone] |  | rapidly degraded by the liver | too low to permit delivery of the amounts of testosterone needed for therapy |
